The results in this text go back to article PMC5431342, “Discovery of an enzyme and substrate selective inhibitor of ADAM10 using an exosite-binding glycosylated substrate” (Scientific Reports, 2016).

Data set [1] concerns CCL2-induced migration of peripheral blood mononuclear cells (PBMC). Briefly: PBMC migration assay. It counts as cell-based. As to conditions: statistical significance not reached. The method, then: For PBMC or primary human neutrophil chemotaxis assays, transwells with 8 or 5 µm pores were filled with 100 µL of cell suspension (1 × 10^6 cells in 100 µL DMEM + 0.2% BSA). Lower wells were filled with stimulus solution (3 nM CCL2 or 10 µg/mL CXCL8 (IL8) in assay buffer (RPMI + 0.2% BSA). After incubation of PBMCs for 2 h or neutrophils for 45 min, migrated cells were quantified in the lower well. For inhibitor studies, cells were pre-incubated in migration medium for 30 min and subsequently subjected to the migration experiment. Migrated neutrophils or PBMCs were quantified by measurement of endogenous glucuronidase activity as described.

In the next data set the test system is BT474 cells. The data set can be described thus: Cell toxicity study (CellTiter-Glo), BT474. The data set is classed as cell-based. As to conditions: 72 h. On the procedure:
Test compounds were solubilized in 100% DMSO and added to polypropylene 384 well plates (Greiner cat# 781280). 1,250 of BT474 or HEK293 cells were plated in 384-well plates in 8 µL of serum-free media (HybriCare for BT474, EMEM for HEK293). Test compounds and pharmacological assay control (lapatinib) were prepared as 10-point, 1:3 serial dilutions starting at 10 mM, then added to the cells using the pin tool mounted on Biomek NX^P. Plates were incubated for 72 h at 37 °C, 5% CO2 and 95% RH. After incubation, 8 µL of CellTiter-Glo® (Promega cat# G7570) was added to each well, and incubated for 15 min at room temperature. Luminescence was recorded using a Biotek Synergy H4 multimode microplate reader. Viability was expressed as a percentage relative to wells containing media only (0%) and wells containing cells treated with DMSO only (100%). Three parameters were calculated on a per-plate basis: (a) the signal-to-background ratio (S/B); (b) the coefficient for variation [CV; CV = (standard deviation/mean) × 100)] for all compound test wells; and (c) the Z′-factor. IC50 values were calculated by fitting normalized data to sigmoidal log vs. response equation utilizing non-linear regression analysis from GraphPad Prizm 6.
(Cellular ATP, detected with luciferase, serves as a proxy for viable cell number.)

The target of a further data set is T1, ADAM10 (Homo sapiens, UniProt O14672).
T1 construct: purchased R&D Systems 936-AD
T1 sequence (O14672 214-748): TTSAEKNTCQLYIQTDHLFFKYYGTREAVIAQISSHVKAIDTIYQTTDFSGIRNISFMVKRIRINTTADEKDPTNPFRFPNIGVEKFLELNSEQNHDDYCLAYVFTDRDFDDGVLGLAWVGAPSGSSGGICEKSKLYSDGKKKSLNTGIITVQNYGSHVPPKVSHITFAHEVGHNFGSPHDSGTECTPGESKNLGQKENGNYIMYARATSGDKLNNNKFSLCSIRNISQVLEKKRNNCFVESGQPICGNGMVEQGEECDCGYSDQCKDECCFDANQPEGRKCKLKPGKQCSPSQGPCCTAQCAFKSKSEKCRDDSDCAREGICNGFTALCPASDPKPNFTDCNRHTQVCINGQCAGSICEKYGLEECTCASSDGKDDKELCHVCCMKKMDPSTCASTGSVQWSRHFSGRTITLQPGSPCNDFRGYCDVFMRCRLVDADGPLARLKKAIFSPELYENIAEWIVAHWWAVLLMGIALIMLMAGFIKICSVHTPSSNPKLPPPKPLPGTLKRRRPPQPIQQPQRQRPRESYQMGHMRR
The data set can be described thus: HPLC-based ADAM10 assay using glycosylated substrate. The data set is classed as biochemical. On the procedure:
Both assays followed the same general protocol. 30 µL of 3x enzyme solution (30 nM) in assay buffer (10 mM Hepes, 0.001% Brij-35, pH 7.5) were added to solid bottom black 384 plates. Next, 30 µL of 3x test compounds and pharmacological controls were added to corresponding wells. After 30 min incubation at RT, the reactions were started by addition of 30 µL of 3x solution of glycosylated substrate (30 µM). Reactions were incubated at RT for 2 h and then quenched with 10 µL of 500 µM EDTA. Analytical RP-HPLC was performed on a 1260 Infinity Agilent Technologies liquid chromatograph equipped with an Agilent Poroshell 120 column. Eluents were 0.1% TFA in water (A) and 0.1% TFA in acetonitrile (B). The elution gradient was 0–98% B in 15 min with a flow rate of 1.0 mL/min. Detection was at λ = 214, 360, and 460 nm.

Broadly, the IC50 is the concentration needed to halve the response being measured. Consider `COc1cccc(C(=O)NNC(=O)C(=O)Nc2ccc(C)c(Cl)c2)c1` [CID 3117694], for which the “inhibition of PBMC migration” value in data set [1] is given as “approximately 50%”. Moreover, the “effect on viability of BT474 cells” value with BT474 cells was “did not affect viability”. This compound gave an IC50 on ADAM10 of 4.1 µM.
